Data published in patent US11241398B2, “Affinity medicant conjugate” (Califia Pharma Inc., priority 2014, dated 2022).
Where two headings read alike, the source gives them in different places. Marks after values point to notes of the source that are not given here. Residues, ends and D or L forms follow the SMILES beside them. *: point of attachment. X3 = CC1=C(C*)C2=C(C)C3(CC3)C(C)(O)C(=O)C2=C1

What was measured:
[1] = tested on: 8392B cell line; test: 48 hour exposure, growth or viability by Trypan Blue Exclusion assay, nontarget cell line; type: cell-based; settings: for IC50: read-out: Mean IC50 value, 8392B Nontarget Cell Line, 48 hr exposure, 8392B nontarget cell line, 48 hr exposure, mean ± SD, N = 3 unless otherwise indicated
Experimental: (§1) The MV522 cell line is a lung-derived adenocarcinoma cell line. In various embodiments of the invention, the MV522 cell line represents a “target” cell line. […] The two hour toxicity data represents the concentration of a given analog for which a two hour exposure will inhibit 50% of the DNA synthesis activity in a given cell line. The 48 hour exposure data represents the concentration at which a given analog with a 48 hour exposure will inhibit the growth or viability in a given cell line as defined by the standard Trypan Blue Exclusion assay.

[2] = tested on: MV522 cell line; test: two hour toxicity: inhibition of 50% of DNA synthesis activity, target cell line; settings: for IC50: read-out: Mean IC50 value, MV522 Target Cell Line, 2 hr exposure, MV522 target cell line, 2 hr exposure, mean ± SD, N = 3 unless otherwise indicated; for cytotoxicity (in words): see Table XV
Experimental: as §1

[3] = tested on: 8392B cell line; test: two hour toxicity: inhibition of 50% of DNA synthesis activity, nontarget cell line; type: cell-based; settings: read-out: Mean IC50 value, 8392B Nontarget Cell Line, 2 hr exposure, mean ± SD, N = 3 unless otherwise indicated
Experimental: as §1

[4] = tested on: MV522 cell line; test: 48 hour exposure, growth or viability by Trypan Blue Exclusion assay, target cell line; type: cell-based; settings: read-out: Mean IC50 value, MV522 Target Cell Line, 48 hr exposure, mean ± SD, N = 3 unless otherwise indicated
Experimental: as §1

[5] = tested on: MCF7 (ER positive); test: cytotoxic data IC50, 2 hour exposure, cells expressing the estrogen receptor; type: cell-based; settings: for preferential killing of MCF7 (ER positive) versus ER negative cells: Table VII
Description: (§2) MCF7 over express estrogen alpha-receptors.
(§3) MCF7 cells over express estrogen alpha-receptors.

[6] = tested on: HT29 (ER Negative); test: cytotoxic data IC50, 2 hour exposure, cells not expressing the estrogen receptor; type: cell-based; settings: N = 3, mean ± SD
Description: as §2, §3

[7] = tested on: NCI-DTP 60 cell line panel; settings: cited from earlier work
[8] = tested on: hormone-refractory prostate cancer; settings: cited from earlier work
[9] = tested on: MDR phenotypes; test: multidrug resistance studies (mechanisms of drug resistance); type: cell-based; settings: multi-medicant resistance phenotype, Bcl-2 over expression, p53 and p21/WAF1 mutations

CC1=C(CO)C2=C(C)C3(CC3)[C@@](C)(O)C(=O)C2=C1 [Analog 002]
inhibition of the nontarget cell line with prolonged exposure ([1]; prolonged exposure period (e.g. 48 hours)): can eventually inhibit the nontarget cell line

CC1=C(COC2OC(CO)C(O)C(O)C2O)C2=C(C)C3(CC3)C(C)(O)C(=O)C2=C1 (stereo not shown) [Analog 018]
IC50 [2]: 8.8 ± 2.9 µM

CC1=C(CSCCC(N)C(=O)O)C2=C(C)C3(CC3)[C@@](C)(O)C(=O)C2=C1 (stereo partly shown) [Analog 097]
IC50 [3]: > 82 µM

CC1=C(CSC[C@@H](C)C(=O)N2CCCC2C(=O)O)C2=C(C)C3(CC3)[C@@](C)(O)C(=O)C2=C1 (stereo partly shown) [Analog 098]
IC50 [1]: 11.7 ± 1.8 µM | IC50 [4]: 4.6 ± 0.25 µM | IC50 [2]: 18.8 ± 2.5 µM | IC50 [3]: > 65 µM

CC1=C2C(=O)C(C)(CO)C=C2C(=O)C(C)(O)C12CC2 (stereo not shown) [Analog 099]
IC50 [2]: 8.4 ± 1.1 µM | IC50 [3]: 4 ± 0.4 µM

CC1=C(CSCC(N)C(=O)NC(CC(N)=O)C(=O)NCC(=O)NC(CCCNC(=N)N)C(=O)NC(CS)C(=O)O)C2=C(C)C3(CC3)C(C)(O)C(=O)C2=C1 (stereo not shown) [Analog 102] (H-C(X3)NGRC-OH; configuration not given here)
IC50 [2]: > 13 µM

CC(=O)OCC1=C(CO)C=C2C(=O)C(C)(OC(C)=O)C3(CC3)C(C)=C21 (stereo not shown) [Analog 103]
IC50 [4]: 5.9 ± 0.4 µM | IC50 [2]: 31.8 ± 4.9 µM | IC50 [3]: 12.1 ± 2 µM

CC1=C2C(=CC(C)(C)[C@@H]2OC(=O)CCCC(=O)Oc2ccc3c(c2)CC[C@@H]2[C@@H]3CC[C@]3(C)C(=O)CC[C@@H]23)C(=O)[C@](C)(O)C12CC2 [Analog 107]
IC50 [2]: > 50 µM | IC50 [3]: > 50 µM

CC1=C(CCC(=O)Oc2ccc3c(c2)CCC2C3CCC3(C)C(O)CCC23)C2=C(C)C3(CC3)C(C)(O)C(=O)C2=C1 (stereo not shown) [Analog 108]
IC50 ([5]; N = 3, mean ± SD): 14.1 ± 2.8 µM | IC50 [6]: > 55 µM | IC50 [4]: 0.52 ± 0.05 µM | IC50 [2]: 12.3 ± 2.3 µM | IC50 [3]: > 55 µM

CC1=C2C(=CC(C)(C)C2OC(=O)CCCC(=O)Oc2ccc3c(c2)CCC2C3CCC3(C)C(O)CCC23)C(=O)C(C)(O)C12CC2 (stereo not shown) [Analog 109]
IC50 [2]: > 50 µM | IC50 [3]: > 50 µM

CC1=C(CCC(=O)Oc2ccc3c(c2)CC[C@@H]2[C@@H]3CC[C@]3(C)C(=O)CC[C@@H]23)C2=C(C)C3(CC3)[C@@](C)(O)C(=O)C2=C1 [Analog 110]
preferential killing of MCF7 (ER positive) versus ER negative cells [5]: preferentially killed | IC50 [1]: 25.3 ± 2.1 µM | IC50 [6]: > 19 µM | IC50 [2]: > 55 µM | IC50 [3]: > 55 µM

CC1=C(CCC(=O)OC2CCC3(C)C(CCC4C5CCC(=O)C5(C)CCC43)C2)C2=C(C)C3(CC3)[C@@](C)(O)C(=O)C2=C1 (stereo partly shown) [Analog 112]
IC50 [1]: 5.2 ± 0.3 µM | IC50 [3]: 14.9 ± 0.1 µM

CC1=C2C(=CC(C)(COC(=O)CCCC(=O)O)C2OC(=O)CCCC(=O)O)C(=O)C(C)(O)C12CC2 (stereo not shown) [Analog 117]
IC50 [1]: 0.01 ± 0.002 µM

CC1=C2C(=CC(C)(COC(=O)c3cc([N+](=O)[O-])cc([N+](=O)[O-])c3)C2OC(=O)CCCC(=O)O)C(=O)C(C)(O)C12CC2 (stereo not shown) [Analog 118]
IC50 [3]: 24.5 ± 4.5 µM

CC(=O)ON(C(C)=O)c1ccc(C(=O)OCC2(C)C=C3C(=O)C(C)(O)C4(CC4)C(C)=C3C2O)cc1 (stereo not shown) [Analog 136]
IC50 [3]: > 6.2 µM

CC(=O)ON(C(C)=O)c1ccc(C(=O)OCC2(C)C=C3C(=O)C(C)(O)C4(CC4)C(C)=C3C2OC(=O)c2ccc(N(OC(C)=O)C(C)=O)cc2)cc1 (stereo not shown) [Analog 140]
IC50 [1]: > 14 µM | IC50 [4]: > 14 µM

COC(=O)C1=C(C(=O)OC)C23C=C(C)C1C2=C(C)C1(CC1)C(C)(O)C3O (stereo not shown) [Analog 141]
IC50 [4]: 3.7 ± 0.8 µM | IC50 [3]: 13.7 ± 1.9 µM

COC(=O)C1=C(C(=O)OC)C23C=C(C)C1C2=C(C)C1(CC1)C(C)(O)C3=O (stereo not shown) [Analog 142]
IC50 [4]: 0.024 ± 0.007 µM

CON(CC1=C(C)C=C2C(=O)[C@](C)(O)C3(CC3)C(C)=C21)C(=O)C(N)Cc1c[nH]c2ccccc12 (stereo partly shown) [Analog 154]
IC50 [2]: > 70 µM | IC50 [3]: > 70 µM

CC1=C(OC(=O)CCCCC(=O)c2ccccc2)C2=C(C)C3(CC3)[C@@](C)(O)C(=O)C2=C1 [Analog 158]
IC50 [2]: > 175 µM | IC50 [3]: > 200 µM

CC1=C2C(=O)C(C)(OC(C)C)CC2C(O)C(=O)C12CC2 (stereo not shown) [Analog 183]
IC50 [1]: > 235 µM | IC50 [2]: > 120 µM | IC50 [3]: > 120 µM

CC1=CC2C(=C(C)C3(CC3)C(C)(O)C2O)C1=O (stereo not shown) [Analog 186]
IC50 [4]: 70 ± 16 µM | IC50 [2]: 144 ± 32 µM

CC1=C(CN2C(=O)C=CC2=O)C2=C(C)C3(CC3)[C@@](C)(O)C(=O)C2=C1 [Analog 189]
cytotoxicity (in words) [2]: cytotoxic with nM activity

CC1=C(CCCN2C(=O)C=CC2=O)C2=C(C)C3(CC3)[C@@](C)(O)C(=O)C2=C1 [Analog 190]
cytotoxicity (in words) [2]: cytotoxic with nM activity

CC1=C2C(=CC(C)(CO[Si](C)(C)C(C)(C)C)C2N)C(=O)C(C)(O)C12CC2 (stereo not shown) [Analog 205]
IC50 [1]: > 2.6 µM | IC50 [2]: 8.4 ± 2.2 µM | IC50 [3]: > 185 µM

CC1=C(COC(=O)CCCCCN2C(=O)C=CC2=O)C2=C(C)C3(CC3)[C@@](C)(O)C(=O)C2=C1 [Analog 217]
cytotoxicity (in words) [2]: cytotoxic with nM activity

CC1=C2C(=CC(C)(C)[C@@H]2OC(=O)CCCCCN2C(=O)C=CC2=O)C(=O)[C@](C)(O)C12CC2 [Analog 218]
IC50 [1]: 0.6 ± 0.1 µM | IC50 [4]: 0.6 ± 0.2 µM | cytotoxicity (in words) [2]: cytotoxic with nM activity

CC1=C2C(=C[C@@](C)(CO[Si](C)(C)C(C)(C)C)[C@@H]2OC(=O)c2ccc(S(=O)(=O)F)cc2)C(=O)[C@](C)(O)C12CC2 [Analog 219]
IC50 [1]: > 52 µM | IC50 [2]: > 52 µM | IC50 [3]: > 52 µM

CC1=C2C(=CC(C)(C)[C@@H]2OC(=O)c2ccc(S(=O)(=O)F)cc2)C(=O)[C@](C)(O)C12CC2 [Analog 222]
IC50 [3]: 9.3 µM

CC1=CC2=C(C)C3(CC3)C(C)(O)C(=NO)C2=C1 (stereo not shown) [Analog 224]
differential toxicity between the target and nontarget cell line ([2]; MV522 versus 8392B): no differential toxicity | toxicity (in words) ([2]; target and nontarget cell line): minimal toxicity

CC1=C(CCCNS(C)(=O)=O)C2=C(C)C3(CC3)[C@@](C)(O)C(=O)C2=C1 [Analog 241]
IC50 [3]: > 28 µM

CC1=C2[C@@H](O)C(C)(C)[C@H]3C[C@@]23C(=O)[C@](C)(O)C12CC2 [Analog 252]
IC50 [1]: > 380 µM | IC50 [2]: > 380 µM | IC50 [3]: > 380 µM

CC1=C(CCCNS(N)(=O)=O)C2=CC3(CC3)C(C)(O)C(=O)C2=C1 (stereo not shown) [Analog 264]
IC50 [4]: 0.076 ± 0.017 µM | IC50 [3]: > 85 µM

CC1=C(CCCNC(=O)OCC2=C(C(=O)O)N3C(=O)C(NC(=O)Cc4cccs4)C3S(=O)(=O)C2)C2=C(C)C3(CC3)C(C)(O)C(=O)C2=C1 (stereo not shown) [Analog 274]
IC50 [1]: > 4.5 µM | IC50 [3]: > 46 µM

CC[C@H](C)[C@@H]([C@@H](CC(=O)N1CCC[C@H]1[C@H](OC)[C@@H](C)C(=O)NCCc1ccccc1)OC)N(C)C(=O)[C@@H](NC(=O)[C@H](C(C)C)N(C)C)C(C)C [Auristatins]
Mean LD50 cytotoxic ([7]; NCI DTP 60 cell line mean): >5,000 nM | Mean TGI cytostatic ([7]; NCI DTP 60 cell line mean): 902** nM | GI50 ([7]; read-out: Mean GI50 inhibition, NCI DTP 60 cell line mean): 0.0014 µM

C=C1C[C@@H]2CC[C@@]34C[C@H]5O[C@H]6[C@@H](O3)[C@H]3O[C@H](CC[C@@H]3O[C@H]6[C@H]5O4)CC(=O)O[C@@H]3[C@@H](C)[C@@H]4O[C@@H]5C[C@]6(C[C@@H]7O[C@]8(C[C@H](C)[C@@H]9O[C@H]([C@@H](O)C[C@@H](O)CO)C[C@@H]9O8)C[C@H](C)[C@@H]7O6)O[C@@H]5C[C@@H]4O[C@H]3C[C@H]3O[C@@H](CC[C@@H]1O2)C[C@@H](C)C3=C [Halichondrin B]
Mean TGI cytostatic ([7]; NCI DTP 60 cell line mean): 199 nM | Mean LD50 cytotoxic [7]: >1,000 nM

CC1=C2C(=CC(C)(C)[C@@H]2O)C(=O)[C@](C)(O)C12CC2 [Illudin M, reference compound]
preferential killing of MCF7 (ER positive) versus ER negative cells [5]: to the same extent | Mean LD50 cytotoxic ([7]; NCI DTP 60 cell line mean): 912 nM

CC1=C(CO)C2=C(C)C3(CC3)[C@@](C)(O)C(=O)C2=C1 [Irofulven, 6-hydroxymethylacylfulvene]
clinical activity [8]: demonstrated clinical activity | safety profile [8]: acceptable safety profile | activity versus common resistance mechanisms [9]: independent of common resistance mechanisms
